Data on two molecules can be found in PMC4254016 (Bioorganic & medicinal chemistry, 2014).

What is called Ki is the equilibrium dissociation constant of an inhibitor or competing ligand from its target.

The target in experiment [1] is PchB. The note with it: read-out: Ki PchB; cited from earlier work.
In experiment [2] the target is salicylate synthase Irp9 (Yersinia enterocolitica, UniProt Q9X9I8). It is filed as biochemical.
Experiment [3] addresses chorismate mutase EcCM (Escherichia coli, UniProt P0A9J8). The experiment is classed as biochemical, E. coli.
In experiment [4] the test system is ΔpchE PAO1. The experiment is classed as cell-based, Pseudomonas aeruginosa. Particulars: high iron (200 µM FeCl3), 24 hrs.
In experiment [5] the test system is ΔpvdA PAO1. The experiment is classed as cell-based, Pseudomonas aeruginosa. Particulars: high iron (200 µM FeCl3), 24 hrs.
The target of experiment [6] is isochorismate-pyruvate lyase PchB (Pseudomonas aeruginosa, UniProt Q51507). It is filed as biochemical.
Chain of isochorismate-pyruvate lyase PchB (Q51507 whole entry): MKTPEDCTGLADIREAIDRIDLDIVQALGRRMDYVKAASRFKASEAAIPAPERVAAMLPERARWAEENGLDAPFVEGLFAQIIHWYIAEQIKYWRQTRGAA
In experiment [7] the test system is P. aeruginosa PAO1. The experiment is described as follows: Bacterial growth inhibition, wildtype PAO1. It is filed as cell-based, Pseudomonas aeruginosa. Particulars: high iron (200 µM FeCl3), 24 hrs.

SMILES strings stand for the structures.

Chain of salicylate synthase Irp9 (Q9X9I8 1-434): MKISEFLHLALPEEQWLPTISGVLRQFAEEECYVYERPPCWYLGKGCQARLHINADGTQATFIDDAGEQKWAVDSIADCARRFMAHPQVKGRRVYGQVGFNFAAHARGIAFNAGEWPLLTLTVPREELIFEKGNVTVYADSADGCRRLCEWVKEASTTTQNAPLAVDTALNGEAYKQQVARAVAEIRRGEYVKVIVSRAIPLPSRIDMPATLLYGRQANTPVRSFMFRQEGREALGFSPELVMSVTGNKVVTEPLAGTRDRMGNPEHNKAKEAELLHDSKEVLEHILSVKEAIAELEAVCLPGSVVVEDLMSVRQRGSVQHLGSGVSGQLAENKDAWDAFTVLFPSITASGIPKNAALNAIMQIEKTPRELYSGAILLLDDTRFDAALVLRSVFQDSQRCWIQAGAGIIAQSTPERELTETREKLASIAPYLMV
Chain of chorismate mutase EcCM (P0A9J8 1-92): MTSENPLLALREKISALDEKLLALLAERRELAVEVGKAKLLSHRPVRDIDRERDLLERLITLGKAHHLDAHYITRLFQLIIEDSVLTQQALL

For the molecule `O=P(O)(O)C12CC3CC(CC(C3)C1)C2` [adamantane-1-phosphonate], the Ki in experiment [1] was above 5 mM.

In the case of `COC(=O)Oc1c([N+](=O)[O-])cc2oc(=O)sc2c1[N+](=O)[O-]` [Compound 10], the “mode of inhibition of Irp9” value in experiment [2] is “competitive inhibitor”. The “mode of inhibition of EcCM” value in experiment [3] is on record as “competitive inhibitors”. Moreover, the “EC50 growth inhibition ΔpchE p.a.” value in experiment [4] is “did not cause growth inhibition”. Moreover, in experiment [5], the “EC50 growth inhibition ΔpvdA p.a.” value was “did not cause growth inhibition”. Also, the “mode of inhibition of PchB” value in experiment [6] is given as “competitive inhibitors”. In experiment [7], the “EC50 growth inhibition PAO1 p.a.” value was “did not cause growth inhibition”.
